{"source": "patent US8071300B2", "about": "“Drug-phosphorylating enzyme” (Daiichi Sankyo Company, Limited, priority 2006, dated 2011)", "key": {"human FN3K [1]": {"target": "T1, human FN3K (Homo sapiens, UniProt Q9H479)", "T1 construct": "expressed in transfected cells; host or cells: HEK293, transient, hFN3K/pcDNA3.2-DEST; cytoplasmic fraction (lysate supernatant) used", "T1 sequence (Q9H479 1-309)": "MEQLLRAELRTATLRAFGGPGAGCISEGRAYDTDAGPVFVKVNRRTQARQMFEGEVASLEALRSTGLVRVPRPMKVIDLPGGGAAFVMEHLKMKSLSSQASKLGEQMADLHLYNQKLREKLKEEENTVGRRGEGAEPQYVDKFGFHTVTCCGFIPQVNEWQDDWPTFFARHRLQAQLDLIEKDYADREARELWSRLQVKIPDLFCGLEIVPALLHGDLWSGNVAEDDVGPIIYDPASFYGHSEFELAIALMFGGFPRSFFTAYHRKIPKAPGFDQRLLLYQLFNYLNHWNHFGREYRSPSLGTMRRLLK", "experiment": "Phosphorylation of compound 1 and analogs using human FN3K expression cytoplasmic fraction (Example 14)", "format": "biochemical", "details": "100 μM substrate, 0.3 mg/mL human FN3K expression cytoplasmic fraction, 5 mM ATP, 37° C., 3 hours", "experimental": "(§1) HEK293 cells were inoculated to three 75-cm^2 culture flasks, and they were then cultured until they became 80% confluent. Using a lipofectamine plus reagent (Invitrogen), gene introduction was carried out without plasmid DNA, with 4 μg of hFN3KRP/pcDNA3.1(+)neo, and with 4 μg of hFN3K/pcDNA3.2-DEST, for each of the three flasks. Thereafter, the cells were cultured for approximately 27 hours. Thereafter, the cells were washed with PBS, and 2.5 mL of a cell lysate (100 mM HEPES (pH 7.4), 80% (v/v) CelLytic-M (Sigma), 1 mM dithiothreitol, a single protease inhibitor cocktail for 50 mL (Complete EDTA-free, Roche)) was then added to the cells. Thereafter, the cells were intensively shaken, until all of them were removed. The thus removed cells and the supernatant were recovered, and they were then ultracentrifuged at 20,000×g at 4° C. for 15 minutes. Thereafter, the supernatant was recovered, and aliquots each of 200 μL were frozen in liquid nitrogen. They were preserved at −80° C. until used. […]\n(§2) The efficiency of phosphorylating each compound was calculated using the peak areas of phosphoric ester and unreacted substrate, as shown in the following formula. […]\nAfter completion of the reaction, 200 μL of methanol was added to the reaction solution, and the mixture was then stirred. […] The efficiency of phosphorylating each analog was calculated using the formula as shown in Example 13."}, "rat erythrocytes": {"system": "rat erythrocytes", "experiment": "Phosphorylation of compound 1 and analogs using rat erythrocytes (Example 15)", "format": "cell-based, Wistar-Imamichi rats", "details": "100 μg/mL substrate, 37° C., 3 hours", "experimental": "The efficiency of phosphorylating each compound was calculated using the peak areas of phosphoric ester and unreacted substrate, as shown in the following formula. Phosphorylation efficiency (%)=peak area of phosphoric ester/(peak area of phosphoric ester+peak area of unreacted substrate)×100\nErythrocytes were prepared from Wistar-Imamichi rats (purchased from Institute for Animal Reproduction) in the same manner as in Example 1.\nReaction solution: Rat erythrocytes\nReaction substrate: 100 μg/mL\nReaction condition: 37° C., 3 hours\nAfter completion of the reaction, 1 mL of methanol was added to the reaction solution, and the mixture was then stirred. The mixed solution was centrifuged (16,000×g, 5 minutes, 4° C.). The supernatant was centrifuged again (16,000×g, 10 minutes, 4° C.), and 20 μL of a newly obtained supernatant was then subjected to HPLC, so that analysis was carried out under the conditions described in Example 13. The efficiency of phosphorylating each analog was calculated using the formula as shown in Example 13."}, "human FN3KRP [2]": {"target": "T2, human FN3KRP (Homo sapiens, UniProt Q9HA64)", "T2 sequence (Q9HA64 1-309)": "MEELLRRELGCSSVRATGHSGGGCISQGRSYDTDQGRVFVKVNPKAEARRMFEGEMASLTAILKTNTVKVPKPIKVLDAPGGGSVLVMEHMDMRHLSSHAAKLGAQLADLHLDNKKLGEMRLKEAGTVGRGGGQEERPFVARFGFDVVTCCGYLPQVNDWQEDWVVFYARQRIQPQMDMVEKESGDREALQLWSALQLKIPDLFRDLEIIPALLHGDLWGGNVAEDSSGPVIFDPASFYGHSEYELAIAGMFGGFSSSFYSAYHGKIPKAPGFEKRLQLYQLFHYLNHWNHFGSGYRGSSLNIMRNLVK", "experiment": "Phosphorylation of compound 1 and analogs using human FN3KRP expression cytoplasmic fraction (Example 13)", "format": "biochemical", "parameters": "expressed in transfected cells; host or cells: HEK293, transient, hFN3KRP/pcDNA3.1(+)neo; cytoplasmic fraction (lysate supernatant) used", "details": "100 μM substrate, 0.328 mg/mL human FN3KRP expression cytoplasmic fraction, 5 mM ATP, 37° C., 3 hours", "experimental": "as §1, with “used. In addition, a portion of the supernatant was subjected to measurement of protein concentration.” for “used.”\nas §2"}, "human FN3K [3]": {"target": "T1, human FN3K", "experiment": "Ability of human FN3K cytoplasmic fraction to phosphorylate FTY720 and sphingosine (Example 12)", "format": "biochemical", "details": "10 μM substrate, 5 mM ATP, approximately 91 μg cytoplasmic fraction, 37° C., 3 hours", "experimental": "(§3) Eighteen 1.5-mL polypropylene tubes were prepared. Components were added to each tube to the following final concentrations, with the total amount set at 250 μL, followed by leaving the obtained solution at rest on ice (100 mM HEPES (pH 7.4), 5 mM magnesium chloride, 5 mM ATP, 1 mM dithiothreitol, 0.5% CHAPS, 10 μM FTY720 or sphingosine, each cytoplasmic fraction obtained in Example 10 in an amount of approximately 91 μg). The obtained mixture was incubated in a hot-water bath at 37° C. for 3 hours, and was then transferred onto ice. 0.5 mL methanol was added to each tube, and mixed with the reaction product. Thereafter, the mixture was preserved at −20° C. until LC/MS/MS measurement was carried out.\n(§4) The amount of FTY720 phosphoric ester or SIP generated was analyzed using the following LC/MS/MS system.\n(§5) LC system: • HPLC apparatus name: Agilent 1100 series (Agilent Technologies) • Autosampler name: HTC PAL (CTC Analytics)\n(§6) MS/MS system: • Apparatus name: API4000 (Applied Biosystems/MDS Sciex)"}, "human FN3KRP [4]": {"target": "T2, human FN3KRP", "experiment": "Ability of human FN3KRP cytoplasmic fraction to phosphorylate FTY720 and sphingosine (Example 12)", "format": "biochemical", "parameters": "expressed in transfected cells; host or cells: HEK293, transient, hFN3KRP/pcDNA3.1(+)neo; cytoplasmic fraction (lysate supernatant) used", "details": "10 μM substrate, 5 mM ATP, approximately 91 μg cytoplasmic fraction, 37° C., 3 hours", "experimental": "as §3, §4, §5, §6"}, "human FN3K [5]": {"target": "T1, human FN3K", "experiment": "DMF inhibition of compound 1 phosphorylating activity, hydrophobic interaction column active fraction (Example 6)", "format": "biochemical", "details": "active fraction of the hydrophobic interaction column (second purification stage, Example 4)", "experimental": "(§7) When 1-deoxy-1-morpholinofructose (DMF; Sigma) was added to the reaction solution, it was added thereto to a final concentration of 1 mM. […] Thereafter, 150 μL of methanol was added to the reaction solution, and the mixture was then filtrated through a filter with a pore diameter of 0.45 μm, so as to terminate the reaction and remove the protein. 10 μL of the filtrate was subjected to a reverse phase chromatography column (TSK-gel ODS-100S; 4.6 mm (diameter)×150 mm (length); Tosoh Corp). Isocratic elution was carried out using 40% acetonitrile comprising 0.1% trifluoroacetic acid at a flow rate of 1 mL/min at a column temperature of 40° C. […] The amount of phosphoric ester of compound 1 generated was measured based on a peak area."}, "human FN3KRP [6]": {"target": "T2, human FN3KRP", "experiment": "Compound 1 phosphorylating activity of human erythrocyte fractions in presence and absence of 1 mM DMF (FN3KRP purification, Example 6)", "format": "biochemical", "experimental": "as §7\n(§8) For purification, enzyme activity was always measured in the presence and absence of 1 mM DMF, so that the purification was carried out using activity that is not inhibited by DMF as an indicator.\n(§9) The ammonium sulfate precipitate obtained in Example 4 was fractionated by each of an anion exchange column (HiPrep Q 16/10 XL, GE Healthcare Biosciences), a dye-binding affinity column (HiTrap Blue HP 1 mL), a cation exchange column (Mono S PC 1.6/5), and a gel filtration column (Superdex 75 PC 3.2/30)."}, "human FN3KRP [7]": {"system": "human FN3KRP", "experiment": "Compound 1 phosphorylating activity of human erythrocyte fractions in presence and absence of 1 mM DMF (FN3KRP purification, Example 6)", "format": "biochemical", "experimental": "as §7, §8, §9"}}, "data": [{"molecule": "NC(CO)(CO)CCCc1ccc(Sc2cccc(OCc3ccccc3)c2)cc1Cl", "note": "[ROX-2127, 2-amino-2-[4-(3-benzyloxyphenylthio)-2-chlorophenyl]propyl-1,3-propanediol]", "values": [{"measurement": "Phosphorylation efficiency", "setting": "human FN3K [1]", "result": 0.0, "unit": "%"}, {"measurement": "Phosphorylation efficiency", "setting": "rat erythrocytes", "result": 31.7, "unit": "%"}, {"measurement": "Phosphorylation efficiency", "setting": "human FN3KRP [2]", "result": 37.5, "unit": "%"}]}, {"molecule": "CCCCCCCCCCCCC/C=C/[C@@H](O)[C@@H](N)CO", "note": "[sphingosine]", "values": [{"measurement": "Phosphorylation of substrate (LC/MS/MS)", "setting": "human FN3K [3]", "result": "do not have ability to phosphorylate"}, {"measurement": "Phosphorylation of substrate (LC/MS/MS)", "setting": "human FN3KRP [4]", "result": "do not have ability to phosphorylate"}]}, {"molecule": "O=C(CN1CCOCC1)[C@@H](O)[C@H](O)[C@H](O)CO", "note": "[DMF, 1-deoxy-1-morpholinofructose]", "values": [{"measurement": "IC50", "setting": "human FN3K [5]", "result": "~1", "unit": "µM"}, {"measurement": "remaining activity at 1000 µM", "setting": "human FN3KRP [6]; 1 mM DMF; 2) anion exchange column", "result": 98, "unit": "%"}, {"measurement": "remaining activity at 1000 µM", "setting": "human FN3KRP [6]; 1 mM DMF; 3) dye-binding affinity column", "result": 110, "unit": "%"}, {"measurement": "remaining activity at 1000 µM", "setting": "human FN3KRP [6]; 1 mM DMF; 4) cation exchange column", "result": 98, "unit": "%"}, {"measurement": "Inhibition of enzyme activity by DMF", "setting": "human FN3KRP [6]; enzyme activity after the second purification step", "result": "not inhibited"}, {"measurement": "Remaining activity", "setting": "human FN3KRP [7]; 1 mM DMF; 1) ammonium sulfate precipitation", "result": 89, "unit": "%"}, {"measurement": "Remaining activity", "setting": "human FN3KRP [7]; 1 mM DMF, soluble fraction", "result": 81, "unit": "%"}, {"measurement": "Inhibition of compound 1 phosphorylating activity by DMF", "setting": "human FN3KRP [7]; soluble fraction and re-solubilized ammonium sulfate precipitate", "result": "hardly observed"}]}, {"molecule": "CCCCCCCCc1ccc(CCC(N)(CO)CO)cc1.Cl", "note": "[FTY720, 2-Amino-2-[2-(4-octylphenyl)ethyl]propane-1,3-diol hydrochloride]", "values": [{"measurement": "Phosphorylation of substrate (LC/MS/MS)", "setting": "human FN3K [3]", "result": "slightly phosphorylate"}, {"measurement": "Phosphorylation of substrate (LC/MS/MS)", "setting": "human FN3KRP [4]", "result": "slightly phosphorylate"}]}]}
